The values below come from patent publication US11912686B2 (Gilead Sciences, Inc., priority 2020, dated 2024).

SMILES strings stand for the structures.

The target of this test is human LPAR1 (Homo sapiens (Human), UniProt Q92633). The experiment in a line: LPAR1 intracellular calcium mobilization assay (antagonist mode, FLIPR). The class given is cell-based. To be noted: CHO-K1 EDG2 cells expressing human LPAR1, LPA 18:2 at EC80 (100 nM), test compound 0.5 nM to 10 μM.
Sequence of human LPAR1 (Q92633 whole entry): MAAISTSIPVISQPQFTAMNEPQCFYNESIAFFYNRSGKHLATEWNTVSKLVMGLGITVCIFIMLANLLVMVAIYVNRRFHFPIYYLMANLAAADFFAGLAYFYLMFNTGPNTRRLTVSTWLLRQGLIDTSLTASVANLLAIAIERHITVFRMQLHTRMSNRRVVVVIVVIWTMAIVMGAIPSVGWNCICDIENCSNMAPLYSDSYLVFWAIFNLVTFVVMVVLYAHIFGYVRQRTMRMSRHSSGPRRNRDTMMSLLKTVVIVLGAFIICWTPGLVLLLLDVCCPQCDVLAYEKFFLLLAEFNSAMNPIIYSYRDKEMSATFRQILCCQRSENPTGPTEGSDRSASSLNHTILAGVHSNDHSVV
With `C[C@@H](OC(=O)Nc1c(-c2ccc(NC(=O)C3(F)CC(F)C3)cn2)nnn1C)c1cccnc1Cl` (stereo partly drawn) [Compound 131, (R)-1-(2-chloropyridin-3-yl)ethyl (4-(5-(1,3-difluorocyclobutane-1-carboxamido)pyridin-2-yl)-1-methyl-1H-1,2,3-triazol-5-yl)carbamate], the 50% effective concentration (EC50) was 260 nM.

As for `C[C@@H](OC(=O)Nc1c(-c2ccc(NC(=O)c3cnc(N4CCOCC4)nc3)cn2)nnn1C)c1cc(F)cnc1F` [Compound 284, (R)-1-(2,5-difluoropyridin-3-yl)ethyl (1-methyl-4-(5-(2-morpholinopyrimidine-5-carboxamido)pyridin-2-yl)-1H-1,2,3-triazol-5-yl)carbamate], the 50% effective concentration (EC50) was 908 nM.

For `C[C@@H](OC(=O)Nc1c(-c2ccc(NC(=O)[C@]3(C#N)C[C@H]3C(F)F)cn2)nnn1C)c1cc(F)cnc1F` [Compound 245, (R)-1-(2,5-difluoropyridin-3-yl)ethyl (4-(5-((1R,2R)-1-cyano-2-(difluoromethyl)cyclopropane-1-carboxamido)pyridin-2-yl)-1-methyl-1H-1,2,3-triazol-5-yl)carbamate], the EC50 came out at 11.7 nM.

Consider `C[C@@H](OC(=O)Nc1c(-c2ccc(NC(=O)[C@H]3C[C@@H](O)C3)cn2)nnn1C)c1cccnc1Cl` [Compound 155, (R)-1-(2-chloropyridin-3-yl)ethyl (4-(5-((1s,3S)-3-hydroxycyclobutane-1-carboxamido)pyridin-2-yl)-1-methyl-1H-1,2,3-triazol-5-yl)carbamate], for which the EC50 was 748 nM.

On to `C[C@@H](OC(=O)Nc1c(-c2ccc(NC(=O)C3CC4(CC(F)C4)C3)cn2)nnn1C)c1cccnc1Cl` (stereo partly drawn) [Compound 81, (R)-1-(2-chloropyridin-3-yl)ethyl (4-(5-(6-fluorospiro[3.3]heptane-2-carboxamido)pyridin-2-yl)-1-methyl-1H-1,2,3-triazol-5-yl)carbamate], for which the EC50 turned out to be 22.8 nM.

`COc1cc(C(=O)Nc2ccc(-c3nnn(C)c3NC(=O)O[C@H](C)c3cc(F)cnc3F)nc2)on1` [Compound 281, (R)-1-(2,5-difluoropyridin-3-yl)ethyl (4-(5-(3-methoxyisoxazole-5-carboxamido)pyridin-2-yl)-1-methyl-1H-1,2,3-triazol-5-yl)carbamate]: the 50% effective concentration (EC50) worked out at 86.6 nM.

With `C[C@@H](OC(=O)Nc1c(-c2ccc(NC(=O)C3CC(O)(C(F)(F)F)C3)cn2)nnn1C)c1cccnc1Cl` (stereo partly drawn) [Compound 136, (R)-1-(2-chloropyridin-3-yl)ethyl (4-(5-(3-hydroxy-3-(trifluoromethyl)cyclobutane-1-carboxamido)pyridin-2-yl)-1-methyl-1H-1,2,3-triazol-5-yl)carbamate], the half-maximal effective concentration (EC50) came out at 602 nM.

For `Cc1ncc(F)cc1[C@@H](C)OC(=O)Nc1c(-c2ccc(NC(=O)C3CC(F)(F)C3)cn2)nnn1C` [Compound 175, (R)-1-(5-fluoro-2-methylpyridin-3-yl)ethyl (4-(5-(3,3-difluorocyclobutane-1-carboxamido)pyridin-2-yl)-1-methyl-1H-1,2,3-triazol-5-yl)carbamate], the EC50 was 35.4 nM.

Consider `C[C@@H](OC(=O)Nc1c(-c2ccc(NC(=O)[C@@H]3C[C@H]3c3ccccn3)cn2)nnn1C)c1cc(F)cnc1F` [Compound 265, (R)-1-(2,5-difluoropyridin-3-yl)ethyl (1-methyl-4-(5-((1R,2R)-2-(pyridin-2-yl)cyclopropane-1-carboxamido)pyridin-2-yl)-1H-1,2,3-triazol-5-yl)carbamate], for which the EC50 was 19.5 nM.

`C[C@@H](OC(=O)Nc1c(-c2ccc(NC(=O)C34CC(C(F)F)(C3)C4)cn2)nnn1C)c1cccnc1Cl` [Compound 45, (R)-1-(2-chloropyridin-3-yl)ethyl (4-(5-(3-(difluoromethyl)bicyclo[1.1.1]pentane-1-carboxamido)pyridin-2-yl)-1-methyl-1H-1,2,3-triazol-5-yl)carbamate]: the half-maximal effective concentration (EC50) was determined as 40.8 nM.

Turning to `CO[C@]1(C#N)C[C@@H](C(=O)Nc2cnc(-c3nnn(C)c3NC(=O)O[C@H](C)c3cc(F)cnc3F)nc2)C1` [Compound 334, (R)-1-(2,5-difluoropyridin-3-yl)ethyl (4-(5-((1r,3R)-3-cyano-3-methoxycyclobutane-1-carboxamido)pyrimidin-2-yl)-1-methyl-1H-1,2,3-triazol-5-yl)carbamate], the EC50 was 3420 nM.

With `C[C@@H](OC(=O)Nc1c(-c2ccc(NC(=O)C3(C)CC(F)(F)C3)cn2)nnn1C)c1cc(F)cnc1F` [Compound 226, (R)-1-(2,5-difluoropyridin-3-yl)ethyl (4-(5-(3,3-difluoro-1-methylcyclobutane-1-carboxamido)pyridin-2-yl)-1-methyl-1H-1,2,3-triazol-5-yl)carbamate], the EC50 was found to be 184 nM.

Regarding `COc1cc(C(=O)Nc2ccc(-c3nnn(C)c3NC(=O)O[C@H](C)c3cc(F)cnc3F)nc2)ccn1` [Compound 223, (R)-1-(2,5-difluoropyridin-3-yl)ethyl (4-(5-(2-methoxyisonicotinamido)pyridin-2-yl)-1-methyl-1H-1,2,3-triazol-5-yl)carbamate], the EC50 worked out at 118 nM.

In the case of `Cc1ncc(F)cc1[C@@H](C)OC(=O)Nc1c(-c2ccc(NC(=O)C34CC(F)(C3)C4)cn2)nnn1C` [Compound 179, (R)-1-(5-fluoro-2-methylpyridin-3-yl)ethyl (4-(5-(3-fluorobicyclo[1.1.1]pentane-1-carboxamido)pyridin-2-yl)-1-methyl-1H-1,2,3-triazol-5-yl)carbamate], the concentration giving a half-maximal response (EC50) was found to be 46.5 nM.

For the compound `C[C@@H](OC(=O)Nc1c(-c2ccc(NC(=O)C3(C)CC(F)(F)C3)cn2)nnn1C)c1cccnc1F` [Compound 291, (R)-1-(2-fluoropyridin-3-yl)ethyl (4-(5-(3,3-difluoro-1-methylcyclobutane-1-carboxamido)pyridin-2-yl)-1-methyl-1H-1,2,3-triazol-5-yl)carbamate], the EC50 was 157 nM.

In the case of `C[C@@H](OC(=O)Nc1c(-c2ccc(NC(=O)c3cncc(C(F)F)c3)cn2)nnn1C)c1cc(F)cnc1F` [Compound 219, (R)-1-(2,5-difluoropyridin-3-yl)ethyl (4-(5-(5-(difluoromethyl)nicotinamido)pyridin-2-yl)-1-methyl-1H-1,2,3-triazol-5-yl)carbamate], the 50% effective concentration (EC50) was determined as 37.7 nM.

Turning to `C[C@@H](OC(=O)Nc1c(-c2ccc(NC(=O)C3CC34CC4)cn2)nnn1C)c1cccnc1Cl` (stereo partly drawn) [Compound 149, (R)-1-(2-chloropyridin-3-yl)ethyl (1-methyl-4-(5-(spiro[2.2]pentane-1-carboxamido)pyridin-2-yl)-1H-1,2,3-triazol-5-yl)carbamate], the half-maximal effective concentration (EC50) was determined as 329 nM.

Regarding `C[C@@H](OC(=O)Nc1c(-c2ccc(NC(=O)C#CC(C)(C)O)cn2)nnn1C)c1cccnc1Cl` [Compound 111, (R)-1-(2-chloropyridin-3-yl)ethyl (4-(5-(4-hydroxy-4-methylpent-2-ynamido)pyridin-2-yl)-1-methyl-1H-1,2,3-triazol-5-yl)carbamate], the concentration for a half-maximal effect (EC50) was determined as 191 nM.

With `C[C@@H](OC(=O)Nc1c(-c2ccc(NC(=O)[C@@H]3C[C@H]3c3ccncc3Cl)cn2)nnn1C)c1cc(F)cnc1F` (mixture of isomers) [Compound 238, (R)-1-(2,5-difluoropyridin-3-yl)ethyl (4-(5-((1RS,2RS)-2-(3-chloropyridin-4-yl)cyclopropane-1-carboxamido)pyridin-2-yl)-1-methyl-1H-1,2,3-triazol-5-yl)carbamate], the EC50 came to 52.5 nM.

As for `C[C@@H](OC(=O)Nc1c(-c2ccc(NC(=O)C3C(F)(F)C34CC4)cn2)nnn1C)c1cccnc1Cl` (stereo partly drawn) [Compound 199, (R)-1-(2-chloropyridin-3-yl)ethyl (4-(5-(2,2-difluorospiro[2.2]pentane-1-carboxamido)pyridin-2-yl)-1-methyl-1H-1,2,3-triazol-5-yl)carbamate], the EC50 amounted to 65.7 nM.

As for `C[C@@H](OC(=O)Nc1c(-c2ccc(NC(=O)[C@@H]3C[C@H]3Cl)cn2)nnn1C)c1cc(F)cnc1F` [Compound 218, (R)-1-(2,5-difluoropyridin-3-yl)ethyl (4 (5-((1S,2R)-2-chlorocyclopropane-1-carboxamido)pyridin-2-yl)-1-methyl-1H-1,2,3-triazol-5-yl)carbamate], the 50% effective concentration (EC50) turned out to be 24 nM.

Turning to `CCC1(C(=O)Nc2ccc(-c3nnn(C)c3NC(=O)O[C@H](C)c3cccnc3Cl)nc2)COC1` [Compound 96, (R)-1-(2-chloropyridin-3-yl)ethyl (4-(5-(3-ethyloxetane-3-carboxamido)pyridin-2-yl)-1-methyl-1H-1,2,3-triazol-5-yl)carbamate], the EC50 was 2330 nM.

Turning to `COC12CC(C(=O)Nc3ccc(-c4nnn(C)c4NC(=O)O[C@H](C)c4cccnc4Cl)nc3)(C1)C2` [Compound 46, (R)-1-(2-chloropyridin-3-yl)ethyl (4-(5-(3-methoxybicyclo[1.1.1]pentane-1-carboxamido)pyridin-2-yl)-1-methyl-1H-1,2,3-triazol-5-yl)carbamate], the EC50 came out at 29.7 nM.

Turning to `C[C@@H](OC(=O)Nc1c(-c2ccc(NC(=O)[C@@]3(C#N)C[C@@H]3C(F)(F)F)cn2)nnn1C)c1cccnc1Cl` [Compound 202, (R)-1-(2-chloropyridin-3-yl)ethyl (4-(5-((1S,2S)-1-cyano-2-(trifluoromethyl)cyclopropane-1-carboxamido)pyridin-2-yl)-1-methyl-1H-1,2,3-triazol-5-yl)carbamate], the EC50 was determined as 5 nM.

On to `C[C@@H](OC(=O)Nc1c(-c2ccc(NC(=O)[C@H]3CCC3(F)F)cn2)nnn1C)c1cccnc1Cl` [Compound 91, (R)-1-(2-chloropyridin-3-yl)ethyl (4-(5-((R)-2,2-difluorocyclobutane-1-carboxamido)pyridin-2-yl)-1-methyl-1H-1,2,3-triazol-5-yl)carbamate], for which the concentration for a half-maximal effect (EC50) came to 187 nM.

Consider `C[C@@H](OC(=O)Nc1c(-c2ccc(NC(=O)C3(C#N)CCNC3)cn2)nnn1C)c1cc(F)cnc1F` (stereo partly drawn) [Compound 302, (R)-1-(2,5-difluoropyridin-3-yl)ethyl (4-(5-(3-cyanopyrrolidine-3-carboxamido)pyridin-2-yl)-1-methyl-1H-1,2,3-triazol-5-yl)carbamate], for which the EC50 worked out at 669 nM.
